Assay results: patent US9365481B2, “Cyclohexenone compositions and process for making thereof” (Golden Biotechnology Corporation, priority 2013, dated 2016)

System: H838
Test: CCK-8 cell viability assay, H838
Format: cell-based, human
Details: H838 cells, statement in words
Experimental: Cell viability was measured using Cell Counting Kit-8 (CCK-8, Enzo Life Sciences, Farmingdale, N.Y.). In this assay, WST-8 is reduced by dehydrogenases in cells to produce a yellow-colored product (formazan), which is soluble in culture medium. The amount of formazan generated is directly proportional to the number of living cells. After treatment, CCK-8 solution was added to each well and incubated for 4 h. The concentration of formazan was measured with a spectrophotometer at an absorbance wavelength of 450 nm. Cell viability was expressed as a percentage of the corresponding control.
To determine whether the cytotoxic effects of Compound 1 correlate with the presence of Ras mutations, cell lines derived from human lung cancer (A549 and H838), liver cancer (HepG2 and Hep3B), and leukemia (K562 and THP-1) with wild-type Ras (H838, Hep3B, and K562) or mutant Ras (A549, HepG2, and THP-1) were used. Cell viability was measured after 48 h of Compound 1 treatment.
Next, the IC50 values for Compound 1 analogs (Compounds 29, 30 and 31), a metabolite (Compound 27), and analogues isolated from filamentous A. camphorata (Compounds 25, 26, 28) were determined in H838 cells. […] (Table 1)

In the case of `COC1=C(OCc2ccccc2)C(O)C(C/C=C(\C)CC/C=C(\C)CCC=C(C)C)C(C)C1=O` (stereo not shown) [Compound 31, 3-(benzyloxy)-4-hydroxy-2-methoxy-6-methyl-5-[(2E,6E)-3,7,11-trimethyldodeca-2,6,10-trien-1-yl]cyclohex-2-en-1-one], the “cytotoxic effect compared with Compound 1” value is reported as “even more cytotoxic than Compound 1”.
